Assay results reported in ChEMBL document CHEMBL1124916, “Neural networks applied to quantitative structure-activity relationship analysis” (1990).
Several values for one entry are separate records, joined by “and”; a condition that tells them apart may be missing. Identical values can stand only once.

Key:
Assay type in all cases: functional
[1] = species on record: Mus musculus; assay: Optimal Dose (OD) which cause maximum increase in the life span, after chronic injection at log (1/C).
[2] = species on record: Mus musculus; assay: Optimal Dose (OD) which cause maximum increase in the life span, after singular injection at log (1/C).
[3] = species on record: Mus musculus; assay: Minimum Effective Dose (MED) which cause 40% increase in life span, after chronic injection at log (1/C).
[4] = Compound was evaluated for the Anti-fighting behavior.; parameters: scale not given here
[5] = species on record: Mus musculus; assay: Minimum Effective Dose (MED) which cause 40% increase in life span, after singular injection at log (1/C).
[6] = Evaluation for the Anti-pentylenetetrazole effect.; parameters: unit not given here

SMILES	Anti-fighting behaviour [4]	Anti-pent effect [6]	further results
CN(C)C(=O)OCCC1=C(N2CC2)C(=O)C(CCOC(=O)N(C)C)=C(N2CC2)C1=O			OD [1]: 4.85; OD [2]: 4.62; MED [3]: 5.16
O=C1CN=C(c2ccccc2)c2cc(F)ccc2N1	3.4		
CCCCCC1=C(N2CC2)C(=O)C(CCCCC)=C(N2CC2)C1=O			OD [1]: 4.52; OD [2]: 3.62; MED [5]: 4.07; MED [3]: 4.63
CN1C(=O)CN=C(c2ccccc2Cl)c2cc(Cl)ccc21	4.5	6.03	
N#Cc1ccc2c(c1)C(c1ccccc1)=NCC(=O)N2	3.81	5.3	
CN1C(=O)CN=C(c2ccccc2C(F)(F)F)c2cc([N+](=O)[O-])ccc21	4.86	5.71	
CN1C(=O)CN=C(c2ccccc2F)c2cc([N+](=O)[O-])ccc21	5.8	6.5	
CC1=C(N2CC2)C(=O)C(C(C)COC(N)=O)=C(N2CC2)C1=O (stereo not drawn)			OD [1]: 5.71; OD [2]: 5.31; MED [5]: 5.93; MED [3]: 6.41
CN1C(=O)CN=C(c2ccccc2F)c2ccccc21	3.83	4.53	
CN1C(=O)CN=C(c2ccccc2F)c2cc(F)ccc21		3.33	
CC(=O)OCCC1=C(N2CC2)C(=O)C(C)=C(N2CC2)C1=O			OD [1]: 5.78; MED [3]: 5.78
O=C1CN=C(c2ccccc2Br)c2cc(Cl)ccc2N1	4.85	5.77	
CCCC1=C(N2CC2)C(=O)C(CCC)=C(N2CC2)C1=O			OD [1]: 4.44; OD [2]: 4.14; MED [5]: 4.32; MED [3]: 4.92
CN(C)c1ccc2c(c1)C(c1ccccc1)=NCC(=O)N2		3.84	
NC(=O)CN1C(=O)CN=C(c2ccccc2)c2cc(Cl)ccc21	4.21	5.07	
CN1C(=O)CN=C(c2ccccc2Cl)c2cc([N+](=O)[O-])ccc21	5.12	6.92	
CN1C(=O)CN=C(c2ccccc2)c2cc(Cl)ccc21	4.45	5.31	
O=C1CN=C(c2ccccc2[N+](=O)[O-])c2cc([N+](=O)[O-])ccc2N1	3.91	5.97	
O=C1CN=C(c2ccccc2Cl)c2cc([N+](=O)[O-])ccc2N1	4.2	6.3	
O=C1CN=C(c2ccccc2)c2cc(Br)ccc2N1	4.2	5.2	
CN(C)CCCN1C(=O)CN=C(c2ccccc2)c2cc(Cl)ccc21		3.38	
CC1=C(N2CC2)C(=O)C(CCCC2=C(N3CC3)C(=O)C(C)=C(N3CC3)C2=O)=C(N2CC2)C1=O			OD [1]: 5.39; MED [3]: 5.82
CSc1ccc2c(c1)C(c1ccccc1)=NCC(=O)N2	4.15	4.15	

SMILES	Anti-fighting behaviour [4]	Anti-pent effect [6]	further results
O=C1CN=C(c2ccccc2F)c2cc([N+](=O)[O-])ccc2N1	5.17	6	
O=C1CN=C(c2ccccc2)c2cc(C(F)(F)F)ccc2N1	4.48	5.48	
CCN(CC)CCN1C(=O)CN=C(c2ccccc2)c2cc(Cl)ccc21	3.57	5.06	
O=C1CN=C(c2ccccc2Cl)c2cc(Cl)ccc2N1	5.18	5.85	
CNC(=O)CN1C(=O)CN=C(c2ccccc2)c2cc(C(F)(F)F)ccc21	3.69	5.06	
CN(C)CCN1C(=O)CN=C(c2ccccc2)c2cc([N+](=O)[O-])ccc21	4.25	4.7	
CN1C(=O)CN=C(c2ccccc2)c2cc(C#N)ccc21	4.74	5.44	
N#Cc1ccc2c(c1)C(c1ccccc1F)=NCC(=O)N2	4.75	5.63	
CCN(CC)CCN1C(=O)CN=C(c2ccccc2F)c2cc(Cl)ccc21	4.29	5.38	
O=C1CN=C(c2ccccc2C(F)(F)F)c2cc(C(F)(F)F)ccc2N1	4.27	4.97	
CN(C)c1ccc2c(c1)C(c1ccccc1)=NCC(=O)N2C	3.86	4.69	
CCSc1ccc2c(c1)C(c1ccccc1)=NCC(=O)N2		3.57	
CNC(=O)CN1C(=O)CN=C(c2ccccc2)c2cc([N+](=O)[O-])ccc21	4.55	5.29	
O=C1CN=C(c2ccccc2)c2ccccc2N1	3.37		
O=C1CN=C(c2ccccc2)c2cc(Cl)ccc2N1CCCO	3.61	4.34	
C=CCN1C(=O)CN=C(c2ccccc2)c2cc(Cl)ccc21	4.49	5.35	
O=C1C(c2ccccc2)=C(N2CC2)C(=O)C(c2ccccc2)=C1N1CC1			OD [1]: 4.14; OD [2]: 3.53; MED [3]: 4.33
CCC(C)CN1C(=O)CN=C(c2ccccc2)c2cc([N+](=O)[O-])ccc21 (stereo not drawn)	3.77	4.8	
O=C1CN=C(c2ccccc2C(F)(F)F)c2cc([N+](=O)[O-])ccc2N1	4.54	5.7	
CN(C)CCN1C(=O)CN=C(c2ccccc2)c2cc(Cl)ccc21	3.53	4.73	
O=C1CN=C(c2ccccc2)c2cc(Cl)ccc2N1Cc1ccccc1	3.56	4.64	
CCC(C)CN1C(=O)CN=C(c2ccccc2)c2cc(Cl)ccc21 (stereo not drawn)	3.53	4.99	
CN(C)CCCN1C(=O)CN=C(c2ccccc2F)c2cc(Cl)ccc21	3.97	4.76	

SMILES	Anti-fighting behaviour [4]	Anti-pent effect [6]	further results
CC(=O)C1=C(N2CC2)C(=O)C(C)=C(N2CC2)C1=O			OD [2]: 3.48; MED [5]: 3.94
CN(C)CCCN1C(=O)CN=C(c2ccccc2)c2cc([N+](=O)[O-])ccc21	3.61 and 3.96	5.82 and 4.28	
O=C1CN=C(c2ccccc2)c2cc([N+](=O)[O-])ccc2N1	4.75	5.6	
O=C1CN=C(c2ccccc2)c2cc(Cl)ccc2N1CC1CC1	4.51	4.9	
CNC(=O)CN1C(=O)CN=C(c2ccccc2)c2cc(Cl)ccc21	3.63	5.83	
CN1C(=O)CN=C(c2ccccc2)c2cc([N+](=O)[O-])ccc21	5.07	5.62	
CN1C(=O)CN=C(c2ccccc2F)c2cc(Cl)ccc21	4.78	5.88	
C=CCN1C(=O)CN=C(c2ccccc2)c2cc(C(F)(F)F)ccc21	4.54	5.03	
COc1ccccc1C1=NCC(=O)Nc2ccc(Cl)cc21	3.48	4.6	
O=C1CN=C(c2ccccc2F)c2cc(Cl)ccc2N1	4.76	6.46	
NN1C(=O)CN=C(c2ccccc2)c2cc([N+](=O)[O-])ccc21	5.17	5.77	
O=C1CN=C(c2ccccc2)c2cc(Cl)ccc2N1		4.65	
CC1=C(N2CC2)C(=O)C(CCOC(=O)N(C)C)=C(N2CC2)C1=O			OD [2]: 4.84; MED [5]: 5.09
C[S+]([O-])c1ccc2c(c1)C(c1ccccc1)=NCC(=O)N2 (stereo not drawn)		4.08	
CN(C)CCN1C(=O)CN=C(c2ccccc2)c2cc(C(F)(F)F)ccc21	4.27	4.76	
CCCCSc1ccc2c(c1)C(c1ccccc1)=NCC(=O)N2		3.79	
CC(=O)CN1C(=O)CN=C(c2ccccc2)c2cc(Cl)ccc21	4.21	5.28	
Cc1ccccc1C1=NCC(=O)Nc2ccc(Cl)cc21	3.45	4.57	
CN(C)C(=O)CN1C(=O)CN=C(c2ccccc2)c2cc(Cl)ccc21	4.25	5.35	
CSc1ccc2c(c1)C(c1ccccc1)=NCC(=O)N2C	3.87	3.6	
CCN1C(=O)CN=C(c2ccccc2)c2cc(Cl)ccc21	4.17	4.9	
